Molecules are shown by their SMILES. Active and inactive are the calls of the source. No rule for the calls is given here. A value given as a limit tells only on which side of the number the result lay.

Experimental findings from PubChem BioAssay AID489033 (Sanford-Burnham Center for Chemical Genomics, 2010) are described below.

This test concerns 697B B-cell line, NF-kB luciferase reporter luminescence. The experiment in a line: NF-kB reporter inhibition in B cells, dose response, selectivity assay for T-cell antigen receptor NF-kB inhibitors, 697B cells, luminescence (AID 489033).
For `CCN(CC)S(=O)(=O)c1cc(NC(=O)CNc2cccc(S(=O)(=O)N3CCCC3)c2)ccc1C`, the IC50 is > 80 µM (inactive).

With `COc1ccc(C(=O)/C(C#N)=N/Nc2ccc([N+](=O)[O-])cc2)cc1`, the IC50 is 18.6 µM.

For the molecule `CCOC(=O)N/N=C/c1c(C)nn(-c2cccc(C(F)(F)F)c2)c1Cl`, the IC50 is > 80 µM (inactive).

Regarding `COc1ccc(C2=Nn3c([n+](C)c4ccccc43)SC2)cc1`, the IC50 was 31 µM (inactive).

With `CC(C)CC[n+]1ccccc1/C=C/c1ccc(N(C)C)cc1`, the IC50 was > 80 µM (inactive).

On to `CNC[C@@H](CC1CCCCC1)NC[C@H](CC(C)C)NCCc1cccc(C(F)(F)F)c1`, for which the IC50 is 4.88 µM.

As for `CCN(CC)c1ccc(/C=N/NC(=O)c2nnn(-c3nonc3N)c2C(C)C)c(O)c1`, the IC50 was 1.5 µM.

Take `COc1cc(-c2noc(C)c2-c2ccc(N(C)C)nc2)cc(OC)c1OC`: the IC50 was > 80 µM (inactive).

Regarding `Cc1cc(C)cc(NC(=O)c2ccc([N+](=O)[O-])o2)c1`, the IC50 is 21.3 µM (inactive).

Consider `O=C(NCc1ccc2c(c1)OCO2)c1cc([N+](=O)[O-])ccc1N1CCOCC1`, for which the IC50 is > 80 µM (inactive).

On to `CN(C)c1ccc(-c2nn3c(-c4ccccc4Cl)nnc3s2)cc1`, for which the IC50 is > 80 µM (inactive).

For the molecule `O=C(NC(Nc1nc2ccc([N+](=O)[O-])cc2s1)(C(F)(F)F)C(F)(F)F)c1ccccc1`, the IC50 was 0.72 µM.

Turning to `COc1cc(NCCCCCCCN)c2ncccc2c1`, the IC50 is 41.4 µM (inactive).

Turning to `CCCCCC(=O)N[C@@H](c1ccccc1)[C@@H](O)C(=O)O[C@H]1C[C@@]2(O)[C@@H](OC(=O)c3ccccc3)C3[C@](C)(C(=O)[C@H](OC(C)=O)C(=C1C)C2(C)C)[C@@H](O)C[C@H]1OC[C@@]31OC(C)=O` (stereo partly specified), the IC50 was > 80 µM (inactive).

For the molecule `CCC(C)(C)c1ccc(OCCCC[n+]2cccc(C)c2C)c(C(C)(C)CC)c1`, the IC50 was 16.2 µM.

Regarding `O=[N+]([O-])c1ccc(Sc2ccc(Cl)c(Cl)c2)nc1`, the IC50 is 13.1 µM.
